In ChEMBL document CHEMBL5154651, “Substituent effect of benzyl moiety in nitroquinoxaline small molecules upon DNA binding: Cumulative destacking of DNA nucleobases leading to histone eviction” (Eur J Med Chem, 2022):
Activity calls are given as the source filed them. The calls are words filed in the database; no cut-off is given here.

Legend:
[1] = system: GC rich DNA; experiment: Displacement of Ethidium bromide from native ds-GC12 short DNA (unknown origin) by Stern-Volmer quenching plot analysis; assay type: nucleic-acid assay
[2] = system: GC rich DNA; experiment: Disruption of native ds-GC12 DNA (unknown origin) base stacking interaction assessed as appearance of ICD at 325 nm by circular dichroism analysis; assay type: nucleic-acid assay
[3] = Induction of histone eviction from single assembled nucleosome (unknown origin) assessed as reduction in nucleosome band intensity at 75 uM incubated for 4 hrs by silver staining based gel electrophoresis assay
[4] = system: DNA; experiment: Induction of GC-rich pYUB12 plasmid DNA (unknown origin) unwinding assessed as complete structural change with DNA condensation by measuring increase in condensed DNA band intensity at DNA base-pair to compound ratio of 1:1.5 incubated for 16 hrs by mobility shift assay; assay type: nucleic-acid assay
[5] = system: DNA; experiment: Induction of GC-rich pYUB12 plasmid DNA (unknown origin) unwinding assessed as complete conformational change as condensed form at DNA base-pair to compound ratio of 1:2 incubated for 16 hrs by mobility shift assay; assay type: nucleic-acid assay
[6] = system: GC rich DNA; experiment: Disruption of native ds-GC12 DNA (unknown origin) base stacking interaction assessed as decrease in positive peak intensity at 283 nm at DNA base-pair to compound ratio of 1:4 by circular dichroism analysis; assay type: nucleic-acid assay
[7] = system: DNA; experiment: Induction of GC-rich pYUB12 plasmid DNA (unknown origin) unwinding assessed as DNA structural changes at DNA base-pair to compound ratio of 1:6 incubated for 16 hrs by mobility shift assay; assay type: nucleic-acid assay
[8] = system: Calf thymus DNA; experiment: Binding affinity to calf thymus DNA assessed as change in enthalpy by isothermal titration calorimetry; assay type: nucleic-acid assay; details: Bos taurus
[9] = system: Calf thymus DNA; experiment: Binding affinity to calf thymus DNA assessed as change in entropy by isothermal titration calorimetry; assay type: nucleic-acid assay; details: Bos taurus
[10] = system: Calf thymus DNA; experiment: Binding affinity to calf thymus DNA assessed as change in free energy by isothermal titration calorimetry; assay type: nucleic-acid assay; details: Bos taurus
[11] = system: DNA; experiment: Induction of GC-rich pYUB12 plasmid DNA (unknown origin) unwinding assessed as DNA structural changes at DNA base-pair to compound ratio of 1:4 incubated for 16 hrs by mobility shift assay; assay type: nucleic-acid assay
[12] = system: Calf thymus DNA; experiment: Binding affinity to calf thymus DNA by isothermal titration calorimetry; assay type: nucleic-acid assay; details: Bos taurus
[13] = system: GC rich DNA; experiment: Disruption of native ds-GC12 DNA (unknown origin) base stacking interaction assessed as DNA structural changes by circular dichroism analysis; assay type: nucleic-acid assay
[14] = system: GC rich DNA; experiment: Disruption of native ds-GC12 DNA (unknown origin) base stacking interaction assessed as DNA structural changes at DNA base-pair to compound ratio of 1:4 by circular dichroism analysis; assay type: nucleic-acid assay

SMILES | KSV [1] | Activity [6] | Activity [7] | also measured
CN(C)CCCNc1nc2cc([N+](=O)[O-])ccc2nc1NCc1ccc(C(F)(F)F)cc1 | 4.6 10^4/M | – | – | Activity [2]: Active; Activity [3]: Active; Activity [4]: Active; Activity [5]: Active
CN(C)CCCNc1nc2cc([N+](=O)[O-])ccc2nc1NCc1ccccc1 | < 1 10^4/M | Active | Active | –
CN(C)CCCNc1nc2cc([N+](=O)[O-])ccc2nc1NCc1ccc(C#N)cc1 | < 1 10^4/M | – | Active | –
CN(C)CCCNc1nc2cc([N+](=O)[O-])ccc2nc1NCc1ccco1 | < 0.3 10^4/M | – | – | –
CN(C)CCCNc1nc2cc([N+](=O)[O-])ccc2nc1NCc1cccs1 | < 0.3 10^4/M | – | – | Activity [14]: Active

Now from value to compound, other results behind:

KSV [1] | Activity [6] | Activity [7] | SMILES | also measured
< 1 10^4/M | Active | Active | CN(C)CCCNc1nc2cc([N+](=O)[O-])ccc2nc1NCc1ccc([N+](=O)[O-])cc1 | –
1.7 10^4/M | – | – | Cc1ccc(CNc2nc3ccc([N+](=O)[O-])cc3nc2NCCCN(C)C)cc1 | deltaH [8]: -1.86 kcal/mol; TdeltaS [9]: 5.34 kcal/mol; deltaG [10]: -7.2 kcal/mol; Activity [11]: Active; Ka [12]: 1.54 10^5/M; Activity [13]: Active
< 1 10^4/M | Active | Active | CN(C)CCCNc1nc2cc([N+](=O)[O-])ccc2nc1NCc1ccc(O)cc1 | deltaH [8]: -1.5 kcal/mol; TdeltaS [9]: 4.88 kcal/mol; deltaG [10]: -6.38 kcal/mol; Ka [12]: 3.96 10^4/M
